# Results from patent US3956510A, “Certain mixed antibacterials” (priority 1974, dated 1976).
# Experiments:
# [1] = tested on: bacteria; settings: cited from earlier work
# [2] = tested on: Pseudomonas aeruginosa; assay: bacteriostatic activity / minimum inhibitory concentration against Pseudomonas aeruginosa; assay type: cell-based
# [3] = tested on: Pseudomonas aeruginosa; settings: alone; is reported; cited from earlier work
compound,measurement,setting,value
benzalkonium chloride,bactericidal effect on dried bacteria coated with a greasy film,"[1]; dried bacteria coated with a greasy film, Rahm 1946",can survive many hours of contact
same,bactericidal effect,[1]; ordinarily,ordinarily kills bacteria
"O=C(Nc1ccc(Br)cc1)c1cc(Br)cc(Br)c1O [3,4',5-tribromo salicylanilide]",bacteriostatic activity,"[2]; alone, under the most ideal conditions",75 ppm
same,bacteriostatic activity,"[2]; with 2% soap, based on active ingredient",160 ppm
"Oc1cc(Cl)ccc1Oc1ccc(Cl)cc1Cl [2,4,4'-trichloro-2'-hydroxydiphenyl ether]",activity in the presence of a surfactant,[2]; in the presence of a surfactant such as soap,no practical activity is demonstrable
same,minimum inhibitory concentration,[3],greater than 300 ppm
